{"source": "patent US11730747B2", "about": "“Drink product and use thereof” (HYGIA PHARMACEUTICALS, LLC, priority 2013, dated 2023)", "origin": "cited, not measured here", "key": {"[1]": {"system": "human colon cancer cell lines"}, "JB6 cells": {"system": "JB6 cells", "details": "IP6 0.5-2 mM, three-dimensional growth in soft agar"}, "large intestinal cancer": {"system": "large intestinal cancer", "details": "rats; treatment begun 5 months after carcinogenic induction with azoxymethane"}, "PC-3": {"system": "PC-3", "details": "PC-3 cells"}, "pulmonary adenomas": {"system": "pulmonary adenomas", "details": "diet containing 3% myo-inositol, fed beginning 1 week after exposure to benzo[a]pyrene"}, "PI3K": {"system": "PI3K", "details": "lung adenocarcinoma cell line"}, "bronchial dysplasia": {"system": "bronchial dysplasia", "details": "smokers"}}, "data": [{"smiles": "O=P(O)(O)O[C@H]1[C@H](OP(=O)(O)O)[C@@H](OP(=O)(O)O)[C@H](OP(=O)(O)O)[C@@H](OP(=O)(O)O)[C@H]1OP(=O)(O)O", "note": "[IP6, inositol-1,2,3,4,5,6-hexakisphosphate]", "values": [{"measurement": "growth of human colon cancer cell lines in vitro", "setting": "[1]", "value": "inhibits growth"}, {"measurement": "inhibition of EGF or TPA-induced cell transformation", "setting": "JB6 cells", "value": "dose-dependent inhibition"}, {"measurement": "large intestinal cancers", "setting": "large intestinal cancer", "value": "significantly (p=0.02) reducing"}, {"measurement": "levels of integrin linked kinase 1 (ILK1) and cyclin D1", "setting": "PC-3", "value": "strong decrease"}, {"measurement": "levels of phosphorylated AKT and GSK3α/β", "setting": "PC-3", "value": "reduced levels"}, {"measurement": "phosphorylation levels of the p85 subunit of PI3K at Tyr458 and phosphoinositide-dependent kinase-1 at Ser241", "setting": "PC-3", "value": "reduced phosphorylation levels"}]}, {"smiles": "O[C@H]1[C@H](O)[C@@H](O)[C@H](O)[C@@H](O)[C@H]1O", "note": "[myoinositol]", "values": [{"measurement": "reduction of the number of pulmonary adenomas", "setting": "pulmonary adenomas", "value": 40, "unit": "%"}, {"measurement": "PI3K activity", "setting": "PI3K", "value": "dose-dependent decreases"}, {"measurement": "EC50", "setting": "PI3K; read-out: median effective concentration (ECs) for PI3K inhibition", "value": 73, "unit": "nM"}, {"measurement": "reduction in the systolic and diastolic blood pressures (average)", "setting": "bronchial dysplasia; 18 grams per day for 3 months", "value": 10, "unit": "mm Hg"}, {"measurement": "rate of regression of preexisting dysplastic lesions", "setting": "bronchial dysplasia; 18 grams per day for 3 months, versus 48%, P=0.014", "value": 91, "unit": "%"}, {"measurement": "maximum tolerated dose", "setting": "bronchial dysplasia; oral administration, dose escalation study for one month", "value": 18, "unit": "grams per day"}, {"measurement": "side effects", "setting": "bronchial dysplasia; oral myo-inositol", "value": "mild and mainly gastrointestinal in nature"}]}]}
